# Measured values: patent publication US20090036448A1, “PYRIMIDINE DERIVATIVES AND METHODS OF TREATMENT RELATED TO THE USE THEREOF” (TAISHO PHARMECUTICAL CO., LTD., priority 2004, published 2009)
# Biological target: MCH receptor (Homo sapiens, UniProt Q99705)
# Assay: Receptor binding assay with Radiolabelled MCH Ligand
# Design: expressed in transfected cells; host or cells: 293 cells (human kidney, ATCC), transient transfection; crude membranes
# Conditions: class by percent of control at 10^-7 M or IC50
# Procedure, shortened: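 Membranes from 293 cells transiently transfected with human MCH receptor competed test compounds against a radiolabelled MCH ligand in Tris-HCl pH 7.4 with MgCl2 and EDTA for 60–120 min at room temperature. Filtration and scintillation counting followed, with cold MCH defining nonspecific binding. IC50 came from logit-log plots of %B/B0, and Ki from the Cheng-Prusoff equation.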
# MCH receptor, sequence (Q99705 whole entry): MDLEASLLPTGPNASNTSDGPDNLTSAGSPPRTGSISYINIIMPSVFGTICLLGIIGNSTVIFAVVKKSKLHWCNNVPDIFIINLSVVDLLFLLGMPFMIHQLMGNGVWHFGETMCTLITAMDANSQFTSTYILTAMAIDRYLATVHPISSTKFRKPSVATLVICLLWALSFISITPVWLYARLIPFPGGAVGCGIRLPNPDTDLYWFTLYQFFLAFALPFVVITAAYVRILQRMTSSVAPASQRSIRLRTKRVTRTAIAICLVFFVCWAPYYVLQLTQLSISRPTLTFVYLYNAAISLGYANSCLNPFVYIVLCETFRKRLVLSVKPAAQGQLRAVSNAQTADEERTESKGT
row,SMILES,class
1,Cc1nc(N[C@H]2CC[C@@H](NC(=O)c3ccc4ccccc4c3)CC2)cc(N(C)C)n1 [compound 231],3 (Class 3: The value of percent of control at 10^−7 M was more than 60% or the value of IC50 was more than 200 nM.)
2,Cc1nc(N[C@H]2CC[C@@H](NC(=O)Cc3ccc(OC(F)(F)F)cc3)CC2)cc(N(C)C)n1 [compound 313],3 (Class 3: The value of percent of control at 10^−7 M was more than 60% or the value of IC50 was more than 200 nM.)
3,Cc1ccc(S(=O)(=O)n2ccc(C(=O)N[C@H]3CC[C@@H](Nc4cc(N(C)C)nc(C)n4)CC3)c2)cc1 [compound 342],3 (Class 3: The value of percent of control at 10^−7 M was more than 60% or the value of IC50 was more than 200 nM.)
4,Cc1nc(N[C@H]2CC[C@@H](NC(=O)C(C)c3ccc(N4Cc5ccccc5C4=O)cc3)CC2)cc(N(C)C)n1 (relative stereo) [compound 286],3 (Class 3: The value of percent of control at 10^−7 M was more than 60% or the value of IC50 was more than 200 nM.)
5,COc1ccc2c(CC(=O)N[C@H]3CC[C@@H](Nc4cc(N(C)C)nc(C)n4)CC3)cc(=O)oc2c1 [compound 291],3 (Class 3: The value of percent of control at 10^−7 M was more than 60% or the value of IC50 was more than 200 nM.)
6,Cc1nc(N[C@H]2CC[C@@H](NC(=O)c3ccc(C(C)(C)C)cc3)CC2)cc(N(C)C)n1 [compound 202],3 (Class 3: The value of percent of control at 10^−7 M was more than 60% or the value of IC50 was more than 200 nM.)
7,CC(=O)c1ccc(OCC(=O)N[C@H]2CC[C@@H](Nc3cc(N(C)C)nc(C)n3)CC2)cc1 [compound 275],3 (Class 3: The value of percent of control at 10^−7 M was more than 60% or the value of IC50 was more than 200 nM.)
8,Cc1nc(N[C@H]2CC[C@@H](NC(=O)COCc3ccccc3)CC2)cc(N(C)C)n1 [compound 206],3 (Class 3: The value of percent of control at 10^−7 M was more than 60% or the value of IC50 was more than 200 nM.)
9,Cc1nc(N[C@H]2CC[C@@H](NCc3ccc4c(c3)C(=O)c3ccccc3C4=O)CC2)cc(N(C)C)n1 [compound 353],3 (Class 3: The value of percent of control at 10^−7 M was more than 60% or the value of IC50 was more than 200 nM.)
10,CCOc1ccccc1NC(=S)N[C@H]1CC[C@@H](Nc2cc(N(C)C)nc(C)n2)CC1 [compound 446],3 (Class 3: The value of percent of control at 10^−7 M was more than 60% or the value of IC50 was more than 200 nM.)
11,Cc1nc(N[C@H]2CC[C@@H](NCCOc3ccc(C(C)(C)C)cc3)CC2)cc(N(C)C)n1 [compound 400],3 (Class 3: The value of percent of control at 10^−7 M was more than 60% or the value of IC50 was more than 200 nM.)
12,CCCCCCCc1ccc(-c2ccc(C(=O)N[C@H]3CC[C@@H](Nc4cc(N(C)C)nc(C)n4)CC3)cc2)cc1 [compound 334],3 (Class 3: The value of percent of control at 10^−7 M was more than 60% or the value of IC50 was more than 200 nM.)
13,Cc1ccc(C(=O)N[C@H]2CC[C@@H](Nc3cc(N(C)C)nc(C)n3)CC2)cc1 [compound 242],3 (Class 3: The value of percent of control at 10^−7 M was more than 60% or the value of IC50 was more than 200 nM.)
14,Cc1nc(N[C@H]2CC[C@@H](NC(=O)COc3cccc4c(C)cc(=O)oc34)CC2)cc(N(C)C)n1 [compound 273],3 (Class 3: The value of percent of control at 10^−7 M was more than 60% or the value of IC50 was more than 200 nM.)
15,Cc1nc(N[C@H]2CC[C@@H](NC(=O)Oc3ccc4ccccc4c3)CC2)cc(N(C)C)n1 [compound 461],3 (Class 3: The value of percent of control at 10^−7 M was more than 60% or the value of IC50 was more than 200 nM.)
16,Cc1nc(N[C@H]2CC[C@@H](NC(=O)Cc3ccc(OCc4ccccc4)cc3)CC2)cc(N(C)C)n1 [compound 204],3 (Class 3: The value of percent of control at 10^−7 M was more than 60% or the value of IC50 was more than 200 nM.)
17,Cc1ccc(S(=O)(=O)NCC(=O)N[C@H]2CC[C@@H](Nc3cc(N(C)C)nc(C)n3)CC2)cc1 [compound 317],3 (Class 3: The value of percent of control at 10^−7 M was more than 60% or the value of IC50 was more than 200 nM.)
18,Cc1nc(N[C@H]2CC[C@@H](NCc3cccc4c3-c3ccccc3C4=O)CC2)cc(N(C)C)n1 [compound 392],3 (Class 3: The value of percent of control at 10^−7 M was more than 60% or the value of IC50 was more than 200 nM.)
19,Cc1nc(N[C@H]2CC[C@@H](NC(=O)c3cnn(C)c3Cl)CC2)cc(N(C)C)n1 [compound 272],3 (Class 3: The value of percent of control at 10^−7 M was more than 60% or the value of IC50 was more than 200 nM.)
20,Cc1nc(N[C@H]2CC[C@@H](NS(=O)(=O)c3cc(S(=O)(=O)c4ccccc4)cs3)CC2)cc(N(C)C)n1 [compound 519],3 (Class 3: The value of percent of control at 10^−7 M was more than 60% or the value of IC50 was more than 200 nM.)

row,SMILES,class
1,Cc1nc(N[C@H]2CC[C@@H](NC(=O)c3ccccc3C(=O)c3sc4ccccc4c3C)CC2)cc(N(C)C)n1 [compound 323],3 (Class 3: The value of percent of control at 10^−7 M was more than 60% or the value of IC50 was more than 200 nM.)
2,Cc1nc(N[C@H]2CC[C@@H](NC(=O)c3ccccc3-c3ccccc3)CC2)cc(N(C)C)n1 [compound 325],3 (Class 3: The value of percent of control at 10^−7 M was more than 60% or the value of IC50 was more than 200 nM.)
3,Cc1ccnc(SCC(=O)N[C@H]2CC[C@@H](Nc3cc(N(C)C)nc(C)n3)CC2)n1 [compound 280],3 (Class 3: The value of percent of control at 10^−7 M was more than 60% or the value of IC50 was more than 200 nM.)
4,Cc1nc(N[C@H]2CC[C@@H](NS(=O)(=O)c3cccc(OC(F)(F)F)c3)CC2)cc(N(C)C)n1 [compound 492],3 (Class 3: The value of percent of control at 10^−7 M was more than 60% or the value of IC50 was more than 200 nM.)
5,CCOC(=O)c1c(S(=O)(=O)N[C@H]2CC[C@@H](Nc3cc(N(C)C)nc(C)n3)CC2)c(-c2ccccc2)n(-c2ccccc2)c1C [compound 506],3 (Class 3: The value of percent of control at 10^−7 M was more than 60% or the value of IC50 was more than 200 nM.)
6,Cc1nc(N[C@H]2CC[C@@H](NS(=O)(=O)Cc3ccc(Cl)c(Cl)c3)CC2)cc(N(C)C)n1 [compound 473],3 (Class 3: The value of percent of control at 10^−7 M was more than 60% or the value of IC50 was more than 200 nM.)
7,Cc1nc(N[C@H]2CC[C@@H](NC(=O)OCc3ccccc3)CC2)cc(N(C)C)n1 [compound 463],3 (Class 3: The value of percent of control at 10^−7 M was more than 60% or the value of IC50 was more than 200 nM.)
8,Cc1nc(N[C@H]2CC[C@@H](NC(=O)c3cccc4c3-c3ccccc3C4=O)CC2)cc(N(C)C)n1 [compound 247],3 (Class 3: The value of percent of control at 10^−7 M was more than 60% or the value of IC50 was more than 200 nM.)
9,Cc1nc(N[C@H]2CC[C@@H](NC(=O)c3ccc(-c4cnco4)cc3)CC2)cc(N(C)C)n1 [compound 347],3 (Class 3: The value of percent of control at 10^−7 M was more than 60% or the value of IC50 was more than 200 nM.)
10,COC(=O)N[C@H]1CC[C@@H](Nc2cc(N(C)C)nc(C)n2)CC1 [compound 467],3 (Class 3: The value of percent of control at 10^−7 M was more than 60% or the value of IC50 was more than 200 nM.)
11,Cc1nc(N[C@H]2CC[C@@H](NC(=O)c3ccc(F)cc3C(F)(F)F)CC2)cc(N(C)C)n1 [compound 249],3 (Class 3: The value of percent of control at 10^−7 M was more than 60% or the value of IC50 was more than 200 nM.)
12,Cc1nc(N[C@H]2CC[C@@H](NS(=O)(=O)Cc3cccc(C(F)(F)F)c3)CC2)cc(N(C)C)n1 [compound 472],3 (Class 3: The value of percent of control at 10^−7 M was more than 60% or the value of IC50 was more than 200 nM.)
13,"CCc1cccc(CC)c1NC(=S)N[C@H]1CC[C@@H](Nc2cc(N(C)C)nc(C)n2)CC1 [compound 438, N-(2,6-diethylphenyl)-N′-(cis-4-{[6-(dimethylamino)-2-methylpyrimidin-4-yl]amino}cyclohexyl)thiourea]",2 (Class 2: The value of percent of control at 10^−7 M was from 40% to 60% or the value of IC50 was from 50 nM to 200 nM.)
14,Cc1nc(N[C@H]2CC[C@@H](NS(=O)(=O)c3ccc(Cc4ncc(C(F)(F)F)cc4Cl)s3)CC2)cc(N(C)C)n1 [compound 510],3 (Class 3: The value of percent of control at 10^−7 M was more than 60% or the value of IC50 was more than 200 nM.)
15,Cc1nc(N[C@H]2CC[C@@H](NC(=O)NCc3ccc(F)cc3)CC2)cc(N(C)C)n1 [compound 413],3 (Class 3: The value of percent of control at 10^−7 M was more than 60% or the value of IC50 was more than 200 nM.)
16,Cc1nc(N[C@H]2CC[C@@H](NC(=O)COc3ccccc3[N+](=O)[O-])CC2)cc(N(C)C)n1 [compound 239],3 (Class 3: The value of percent of control at 10^−7 M was more than 60% or the value of IC50 was more than 200 nM.)
17,Cc1nc(N[C@H]2CC[C@@H](NC(=O)OCC(C)(C)C)CC2)cc(N(C)C)n1 [compound 452],3 (Class 3: The value of percent of control at 10^−7 M was more than 60% or the value of IC50 was more than 200 nM.)
18,"Cc1nc(N[C@H]2CC[C@@H](NC(=O)Oc3ccc(Br)cc3)CC2)cc(N(C)C)n1 [compound 455, 4-bromophenyl (cis-4-{[6-(dimethylamino)-2-methylpyrimidin-4-yl]amino}cyclohexyl)carbamate]",3 (Class 3: The value of percent of control at 10^−7 M was more than 60% or the value of IC50 was more than 200 nM.)
19,"Cc1nc(N[C@H]2CC[C@@H](NC(=O)c3ccc(Cl)cc3)CC2)cc(N(C)C)n1 [compound 208, 4-chloro-N-(cis-4-{[6-(dimethylamino)-2-methylpyrimidin-4-yl]amino}cyclohexyl)benzamide]",2 (Class 2: The value of percent of control at 10^−7 M was from 40% to 60% or the value of IC50 was from 50 nM to 200 nM.)
